Assays:
Rattus norvegicus [1] = assay: Antiinflammatory activity against collagen-induced arthritis rat model assessed as inhibition of disease progression at 30 mg/kg, bid; type: functional
THP-1 = assay: Antiinflammatory activity against human THP-1 cells assessed as inhibition of LPS induced IL-23 production; type: functional, cell-based
Rattus norvegicus [2] = assay: Antiinflammatory activity against collagen-induced arthritis rat model assessed as inhibition of disease progression at 10 mg/kg, bid; type: functional
Rattus norvegicus [3] = assay: Antiinflammatory activity against collagen-induced arthritis rat model assessed as inhibition of disease progression at 5 mg/kg, bid; type: functional
[4] = Oral bioavailability in rat at 5 mg/kg; type: ADME, organism-based; conditions: in vivo
Rattus norvegicus [5] = assay: Antiinflammatory activity against collagen-induced arthritis rat model assessed as inhibition of disease progression at 20 mg/kg, bid; type: functional
[6] = target: T1, Interleukin-1 receptor-associated kinase 4 (Homo sapiens, UniProt Q9NWZ3); assay: Inhibition of IRAK4 (unknown origin)
T1 sequence (Q9NWZ3 whole entry): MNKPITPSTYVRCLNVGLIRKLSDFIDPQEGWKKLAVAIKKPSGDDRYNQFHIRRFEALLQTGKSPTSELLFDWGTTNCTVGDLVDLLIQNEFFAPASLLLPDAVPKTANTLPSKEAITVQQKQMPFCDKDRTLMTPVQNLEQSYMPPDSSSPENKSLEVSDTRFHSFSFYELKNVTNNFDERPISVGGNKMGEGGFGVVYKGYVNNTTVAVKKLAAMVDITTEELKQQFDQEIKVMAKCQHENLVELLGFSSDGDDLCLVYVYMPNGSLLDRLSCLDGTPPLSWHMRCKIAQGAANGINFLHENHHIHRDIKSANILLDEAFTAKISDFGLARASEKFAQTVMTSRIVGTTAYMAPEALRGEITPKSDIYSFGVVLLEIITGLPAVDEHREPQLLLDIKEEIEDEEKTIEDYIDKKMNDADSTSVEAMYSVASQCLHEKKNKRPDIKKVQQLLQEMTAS

[7] = Antiinflammatory activity against human dendritic cells assessed as inhibition of LPS induced IL-23 production; type: functional, cell-based; conditions: Dendritic cell
PAD = assay: Induction of PAD activity against human A549 cells; type: toxicity, cell-based
[8] = Clearance in rat at 1 mg/kg, iv; type: ADME, organism-based; conditions: in vivo
Mus musculus [9] = assay: Antiinflammatory activity against mouse assessed as inhibition of IL-1 beta-stimulated IL-6 expression at 75 mg/kg; type: functional
[10] = Plasma concentration in mouse at 75 mg/kg measured after 0.5 hrs; type: ADME, organism-based
Mus musculus [11] = assay: Antiinflammatory activity against mouse assessed as inhibition of IL-1 beta-stimulated IL-6 expression at 15 mg/kg; type: functional
Mus musculus [12] = assay: Antiinflammatory activity against mouse assessed as inhibition of IL-1 beta-stimulated IL-6 expression at 45 mg/kg; type: functional
Mus musculus [13] = assay: Antiinflammatory activity against mouse assessed as inhibition of IL-1 beta-stimulated IL-6 expression at 5 mg/kg; type: functional
[14] = Drug metabolism in rat liver microsomes assessed as oxidative metabolite formation; type: ADME, Microsome

IC50 (THP-1) [nM] | bioavailability [4] [%] | IC50 [6] [nM] | IC50 [7] [nM] | clearance [8] [mL/min/kg] | concentration at 0.5 h [10] [ng/mL] | Drug metabolism [14] | Structure (SMILES) | inhibition in vivo at 30 mg/kg (Rattus norvegicus [1]) [%] | inhibition in vivo at 10 mg/kg (Rattus norvegicus [2]) [%] | inhibition in vivo at 5 mg/kg (Rattus norvegicus [3]) [%] | inhibition in vivo at 20 mg/kg (Rattus norvegicus [5]) [%] | IC50 (PAD) [nM] | inhibition in vivo at 75 mg/kg (Mus musculus [9]) [%] | inhibition in vivo at 15 mg/kg (Mus musculus [11]) [%] | inhibition in vivo at 45 mg/kg (Mus musculus [12]) [%] | inhibition in vivo at 5 mg/kg (Mus musculus [13]) [%]
250 | 38 | 15 | 140 | 53 |  |  | NC(=O)[C@@H]1[C@H](Nc2nc(Nc3cc(F)cc(N4CCOCC4)c3)nc3ccoc23)[C@H]2C=C[C@@H]1C2 | 100 | 56 | 30 | 97 | 3200 | 65 |  |  | 
130 | 8 | 2 | 40 | 88 | 410 |  | NC(=O)[C@@H]1[C@H](Nc2nc(Nc3cccc(C(=O)N4CCCC4)c3)nc3ccn(C(F)F)c23)[C@H]2C=C[C@@H]1C2 |  |  |  |  | 1500 | 0 |  |  | 
110 | 24 | 12 | 230 | 40 |  |  | NC(=O)[C@@H]1[C@H](Nc2nc(Nc3cc(F)cc(N4CCOCC4)c3)nc3ccsc23)[C@H]2C=C[C@@H]1C2 |  |  |  |  | 2300 | 30 |  |  | 
80 | 27 | 3 | 90 | 63 | 65 |  | Cc1n[nH]c2nc(Nc3cccc(C(=O)N4CCCC4)c3)nc(N[C@H]3[C@@H](C(N)=O)[C@@H]4C=C[C@H]3C4)c12 |  |  |  |  | 1600 | 0 |  |  | 
220 | 37 | 9 | 260 | 10 |  |  | NC(=O)[C@@H]1[C@H](Nc2nc(Nc3cc(F)cc(N4CCOCC4)c3)nc3ccn(C(F)F)c23)[C@H]2C=C[C@@H]1C2 |  |  |  |  | 1000 | 0 |  |  | 
230 | 43 | 4.3 | 220 | 6 |  |  | CC(C)n1ncc2ccc(Nc3nc(N[C@H]4[C@@H](C(N)=O)[C@@H]5C=C[C@H]4C5)c4c(ccn4C(F)F)n3)cc21 | 100 |  |  |  | 820 | 64 | 16 | 37 | 9
90 |  |  | 40 | 113 |  | Metabolite_Detected | NC(=O)[C@@H]1[C@H](Nc2nc(Nc3cccc(C(=O)N4CCCC4)c3)nc3ccsc23)[C@H]2C=C[C@@H]1C2 |  |  |  |  | 3800 |  |  |  | 
130 | 1 | 4 | 260 | 58 |  |  | Cn1ccc2nc(Nc3cccc(C(=O)N4CCCC4)c3)nc(N[C@H]3[C@@H](C(N)=O)[C@@H]4C=C[C@H]3C4)c21 |  |  |  |  | 9400 |  |  |  | 

Reference: ChEMBL document CHEMBL5104140, “Bicyclic pyrimidine compounds as potent IRAK4 inhibitors” (Bioorg Med Chem Lett, 2022)
